Experimental data from ChEMBL document CHEMBL1201861, “Genomics of Drug Sensitity in Cancer screening data, Wellcome Trust Sanger Institute”.

Assays:
KYSE-140 = test: cells; type: functional, cell-based, Homo sapiens
Description: SANGER: Inhibition of human KYSE-140 cell growth in a cell viability assay.

CFPAC-1 = test: cells; type: functional, cell-based, Homo sapiens; details: Homo sapiens, CFPAC-1
Description: SANGER: Inhibition of human CFPAC-1 cell growth in a cell viability assay.

OE33 = test: cells; type: functional, cell-based, Homo sapiens
Description: SANGER: Inhibition of human OE33 cell growth in a cell viability assay.

CAL-33 = test: cells; type: functional, cell-based, Homo sapiens
Description: SANGER: Inhibition of human CAL-33 cell growth in a cell viability assay.

HGC-27 = test: cells; type: functional, cell-based, Homo sapiens
Description: SANGER: Inhibition of human HGC-27 cell growth in a cell viability assay.

OE19 = test: cells; type: functional, cell-based, Homo sapiens
Description: SANGER: Inhibition of human OE19 cell growth in a cell viability assay.

PC-3 = test: cells; type: functional, cell-based, Homo sapiens
Description: SANGER: Inhibition of human PC-3 cell growth in a cell viability assay.

HuCCT-1 = test: cells; type: functional, cell-based, Homo sapiens, HuCCT1
Description: SANGER: Inhibition of human HuCCT1 cell growth in a cell viability assay.

NCI-H1651 = test: cells; type: functional, cell-based, Homo sapiens
Description: SANGER: Inhibition of human NCI-H1651 cell growth in a cell viability assay.

OVCAR-8 = test: cells; type: functional, cell-based, Homo sapiens
Description: SANGER: Inhibition of human OVCAR-8 cell growth in a cell viability assay.

A-427 = test: cells; type: functional, cell-based, Homo sapiens
Description: SANGER: Inhibition of human A427 cell growth in a cell viability assay.

HN = test: cells; type: functional, cell-based, Homo sapiens
Description: SANGER: Inhibition of human HN cell growth in a cell viability assay.

SAS = test: cells; type: functional, cell-based, Homo sapiens
Description: SANGER: Inhibition of human SAS cell growth in a cell viability assay.

769-P = test: cells; type: functional, cell-based, Homo sapiens
Description: SANGER: Inhibition of human 769-P cell growth in a cell viability assay.

HT-3 = test: cells; type: functional, cell-based, Homo sapiens
Description: SANGER: Inhibition of human HT-3 cell growth in a cell viability assay.

COLO-679 = test: cells; type: functional, cell-based, Homo sapiens
Description: SANGER: Inhibition of human COLO-679 cell growth in a cell viability assay.

RPMI-7951 = test: cells; type: functional, cell-based, Homo sapiens
Description: SANGER: Inhibition of human RPMI-7951 cell growth in a cell viability assay.

SW-620 = test: cells; type: functional, cell-based, Homo sapiens
Description: SANGER: Inhibition of human SW620 cell growth in a cell viability assay.

SW837 = test: cells; type: functional, cell-based, Homo sapiens
Description: SANGER: Inhibition of human SW837 cell growth in a cell viability assay.

NCI-H810 = test: cells; type: functional, cell-based, Homo sapiens
Description: SANGER: Inhibition of human NCI-H810 cell growth in a cell viability assay.

SW1573 = test: cells; type: functional, cell-based, Homo sapiens
Description: SANGER: Inhibition of human SW1573 cell growth in a cell viability assay.

NCI-H292 = test: cells; type: functional, cell-based, Homo sapiens
Description: SANGER: Inhibition of human NCI-H292 cell growth in a cell viability assay.

CWR22R = test: cells; type: functional, cell-based, Homo sapiens
Description: SANGER: Inhibition of human 22RV1 cell growth in a cell viability assay.

COLO-678 = test: cells; type: functional, cell-based, Homo sapiens
Description: SANGER: Inhibition of human COLO-678 cell growth in a cell viability assay.

NB14 = test: cells; type: functional, cell-based, Homo sapiens; details: Homo sapiens, NB14
Description: SANGER: Inhibition of human NB14 cell growth in a cell viability assay.

KYSE-510 = test: cells; type: functional, cell-based, Homo sapiens
Description: SANGER: Inhibition of human KYSE-510 cell growth in a cell viability assay.

HCC1954 = test: cells; type: functional, cell-based, Homo sapiens
Description: SANGER: Inhibition of human HCC1954 cell growth in a cell viability assay.

BXPC-3 = test: cells; type: functional, cell-based, Homo sapiens
Description: SANGER: Inhibition of human BxPC-3 cell growth in a cell viability assay.

HuP-T3 = test: cells; type: functional, cell-based, Homo sapiens
Description: SANGER: Inhibition of human HuP-T3 cell growth in a cell viability assay.

LoVo = test: cells; type: functional, cell-based, Homo sapiens
Description: SANGER: Inhibition of human LoVo cell growth in a cell viability assay.

MHH-CALL-2 = test: cells; type: functional, cell-based, Homo sapiens; details: mhh-call-2
Description: SANGER: Inhibition of human MHH-CALL-2 cell growth in a cell viability assay.

NCI-H1882 = test: cells; type: functional, cell-based, Homo sapiens; details: nci-h1882
Description: SANGER: Inhibition of human NCI-H1882 cell growth in a cell viability assay.

UACC-812 = test: cells; type: functional, cell-based, Homo sapiens; details: uacc-812
Description: SANGER: Inhibition of human UACC-812 cell growth in a cell viability assay.

LP-1 = test: cells; type: functional, cell-based, Homo sapiens; details: lp-1
Description: SANGER: Inhibition of human LP-1 cell growth in a cell viability assay.

ST486 = test: SANGER: Inhibition of human ST486 cell growth in a cell viability assay.; type: functional, cell-based; details: st486
PF-382 = test: cells; type: functional, cell-based, Homo sapiens; details: pf-382
Description: SANGER: Inhibition of human PF-382 cell growth in a cell viability assay.

Raji = test: cells; type: functional, cell-based, Homo sapiens; details: raji
Description: SANGER: Inhibition of human Raji cell growth in a cell viability assay.

BL-41 = test: cells; type: functional, cell-based, Homo sapiens; details: bl-41
Description: SANGER: Inhibition of human BL-41 cell growth in a cell viability assay.

DG-75 = test: cells; type: functional, cell-based, Homo sapiens; details: dg-75
Description: SANGER: Inhibition of human DG-75 cell growth in a cell viability assay.

HCC1599 = test: cells; type: functional, cell-based, Homo sapiens; details: hcc1599
Description: SANGER: Inhibition of human HCC1599 cell growth in a cell viability assay.

SR = test: cells; type: functional, cell-based, Homo sapiens; details: sr
Description: SANGER: Inhibition of human SR cell growth in a cell viability assay.

KARPAS-422 = test: cells; type: functional, cell-based, Homo sapiens; details: karpas-422
Description: SANGER: Inhibition of human KARPAS-422 cell growth in a cell viability assay.

NCI-H2196 = test: cells; type: functional, cell-based, Homo sapiens; details: nci-h2196
Description: SANGER: Inhibition of human NCI-H2196 cell growth in a cell viability assay.

NCI-H1436 = test: cells; type: functional, cell-based, Homo sapiens; details: nci-h1436
Description: SANGER: Inhibition of human NCI-H1436 cell growth in a cell viability assay.

MDA-MB-134-VI = test: cells; type: functional, cell-based, Homo sapiens; details: mda-mb-134-vi
Description: SANGER: Inhibition of human MDA-MB-134-VI cell growth in a cell viability assay.

K052 = test: cells; type: functional, cell-based, Homo sapiens; details: k052
Description: SANGER: Inhibition of human K052 cell growth in a cell viability assay.

NCI-H1417 = test: cells; type: functional, cell-based, Homo sapiens; details: nci-h1417
Description: SANGER: Inhibition of human NCI-H1417 cell growth in a cell viability assay.

COR-L279 = test: SANGER: Inhibition of human COR-L279 cell growth in a cell viability assay.; type: functional, cell-based; details: cor-l279
REH = test: cells; type: functional, cell-based, Homo sapiens; details: reh
Description: SANGER: Inhibition of human REH cell growth in a cell viability assay.

## CC(C)CCN1c2nc(Nc3cc(F)c(O)c(F)c3)ncc2N(C)C(=O)C1C (configuration not stated)
KYSE-140; Homo sapiens, KYSE-140
  IC50: > 5 µM
CFPAC-1
  IC50: > 5 µM
OE33; Homo sapiens, OE33
  IC50: > 5 µM
CAL-33; Homo sapiens, CAL-33
  IC50: 3.53 µM
HGC-27; Homo sapiens, HGC-27
  IC50: > 5 µM
OE19; Homo sapiens, OE19
  IC50: > 5 µM
PC-3; Homo sapiens, PC-3
  IC50: 4.95 µM
HuCCT-1; Homo sapiens, HuCCT-1
  IC50: > 5 µM
NCI-H1651; Homo sapiens, NCI-H1651
  IC50: > 5 µM
OVCAR-8; Homo sapiens, OVCAR-8
  IC50: > 5 µM
A-427; Homo sapiens, A-427
  IC50: 3.11 µM
HN; Homo sapiens, HN
  IC50: 1.61 µM
SAS; Homo sapiens, SAS
  IC50: > 5 µM
769-P; Homo sapiens, 769-P
  IC50: > 5 µM
HT-3; Homo sapiens, HT-3
  IC50: 2.51 µM
COLO-679; Homo sapiens, COLO-679
  IC50: > 5 µM
RPMI-7951; Homo sapiens, RPMI-7951
  IC50: 3.4 µM
SW-620; Homo sapiens, SW-620
  IC50: > 5 µM
SW837; Homo sapiens, SW837
  IC50: > 5 µM
NCI-H810; Homo sapiens, NCI-H810
  IC50: 3.22 µM
SW1573; Homo sapiens, SW1573
  IC50: > 5 µM
NCI-H292; Homo sapiens, NCI-H292
  IC50: 1.46 µM
CWR22R; Homo sapiens, 22Rv1
  IC50: > 5 µM
COLO-678; Homo sapiens, COLO-678
  IC50: > 5 µM
NB14
  IC50: 2.11 µM
KYSE-510; Homo sapiens, KYSE-510
  IC50: 4.26 µM
HCC1954; Homo sapiens, HCC1954
  IC50: 4.26 µM
BXPC-3; Homo sapiens, BXPC-3
  IC50: > 5 µM
HuP-T3; Homo sapiens, HuP-T3
  IC50: > 5 µM
LoVo; Homo sapiens, LoVo
  IC50: 1.47 µM

## CCN(CC)CCCCNc1ncc2cc(-c3cc(OC)cc(OC)c3)c(NC(=O)NC(C)(C)C)nc2n1 [PD-173074]
KYSE-140; Homo sapiens, KYSE-140
  IC50: > 2 µM
CFPAC-1
  IC50: > 2 µM
OE33; Homo sapiens, OE33
  IC50: > 2 µM
CAL-33; Homo sapiens, CAL-33
  IC50: > 2 µM
HGC-27; Homo sapiens, HGC-27
  IC50: > 2 µM
OE19; Homo sapiens, OE19
  IC50: > 2 µM
PC-3; Homo sapiens, PC-3
  IC50: > 2 µM
HuCCT-1; Homo sapiens, HuCCT-1
  IC50: > 2 µM
NCI-H1651; Homo sapiens, NCI-H1651
  IC50: > 2 µM
OVCAR-8; Homo sapiens, OVCAR-8
  IC50: > 2 µM
A-427; Homo sapiens, A-427
  IC50: > 2 µM
HN; Homo sapiens, HN
  IC50: > 2 µM
SAS; Homo sapiens, SAS
  IC50: > 2 µM
769-P; Homo sapiens, 769-P
  IC50: > 2 µM
HT-3; Homo sapiens, HT-3
  IC50: > 2 µM
COLO-679; Homo sapiens, COLO-679
  IC50: > 2 µM
RPMI-7951; Homo sapiens, RPMI-7951
  IC50: > 2 µM
SW-620; Homo sapiens, SW-620
  IC50: > 2 µM
SW837; Homo sapiens, SW837
  IC50: > 2 µM
NCI-H810; Homo sapiens, NCI-H810
  IC50: > 2 µM
SW1573; Homo sapiens, SW1573
  IC50: > 2 µM
NCI-H292; Homo sapiens, NCI-H292
  IC50: > 2 µM
CWR22R; Homo sapiens, 22Rv1
  IC50: > 2 µM
COLO-678; Homo sapiens, COLO-678
  IC50: > 2 µM
NB14
  IC50: > 2 µM
KYSE-510; Homo sapiens, KYSE-510
  IC50: > 2 µM
HCC1954; Homo sapiens, HCC1954
  IC50: > 2 µM
BXPC-3; Homo sapiens, BXPC-3
  IC50: > 2 µM
HuP-T3; Homo sapiens, HuP-T3
  IC50: > 2 µM
LoVo; Homo sapiens, LoVo
  IC50: > 2 µM

## CN(C)C(=N)NC(=N)N [METFORMIN]
KYSE-140; Homo sapiens, KYSE-140
  IC50: > 20000 µM
CFPAC-1
  IC50: > 20000 µM
CAL-33; Homo sapiens, CAL-33
  IC50: > 20000 µM
HGC-27; Homo sapiens, HGC-27
  IC50: > 20000 µM
OE19; Homo sapiens, OE19
  IC50: > 20000 µM
PC-3; Homo sapiens, PC-3
  IC50: > 20000 µM
HuCCT-1; Homo sapiens, HuCCT-1
  IC50: > 20000 µM
NCI-H1651; Homo sapiens, NCI-H1651
  IC50: 18500 µM
OVCAR-8; Homo sapiens, OVCAR-8
  IC50: > 20000 µM
A-427; Homo sapiens, A-427
  IC50: 7170 µM
HN; Homo sapiens, HN
  IC50: > 20000 µM
SAS; Homo sapiens, SAS
  IC50: 11300 µM
769-P; Homo sapiens, 769-P
  IC50: 6920 µM
HT-3; Homo sapiens, HT-3
  IC50: 8160 µM
COLO-679; Homo sapiens, COLO-679
  IC50: > 20000 µM
RPMI-7951; Homo sapiens, RPMI-7951
  IC50: 9100 µM
SW837; Homo sapiens, SW837
  IC50: > 20000 µM
NCI-H810; Homo sapiens, NCI-H810
  IC50: > 20000 µM
SW1573; Homo sapiens, SW1573
  IC50: > 20000 µM
NCI-H292; Homo sapiens, NCI-H292
  IC50: 5870 µM
CWR22R; Homo sapiens, 22Rv1
  IC50: 18000 µM
COLO-678; Homo sapiens, COLO-678
  IC50: > 20000 µM
KYSE-510; Homo sapiens, KYSE-510
  IC50: > 20000 µM
BXPC-3; Homo sapiens, BXPC-3
  IC50: > 20000 µM
LoVo; Homo sapiens, LoVo
  IC50: > 20000 µM

## BLEOMYCIN
KYSE-140; kyse-140
  IC50: 3.9 µM
MHH-CALL-2
  IC50: 0.535 µM
NCI-H1882
  IC50: 11.5 µM
OE33; oe33
  IC50: 2.75 µM
UACC-812
  IC50: 99.6 µM
CAL-33; cal-33
  IC50: 2.15 µM
HGC-27; hgc-27
  IC50: 2.84 µM
OE19; oe19
  IC50: 2.14 µM
LP-1
  IC50: 307 µM
PC-3; pc-3
  IC50: 13.3 µM
HuCCT-1; hucct1
  IC50: 10.9 µM
ST486
  IC50: 6.39 µM
NCI-H1651; nci-h1651
  IC50: 0.505 µM
PF-382
  IC50: 0.426 µM
Raji
  IC50: 1.85 µM
OVCAR-8; ovcar-8
  IC50: 0.000476 µM
BL-41
  IC50: 14.2 µM
DG-75
  IC50: 16.9 µM
A-427; a-427
  IC50: 0.000118 µM
HCC1599
  IC50: 3.37 µM
HN; hn
  IC50: 29.1 µM
SAS; sas
  IC50: 3.26 µM
769-P; 769-p
  IC50: 0.123 µM
SR
  IC50: 0.0297 µM
HT-3; ht-3
  IC50: 5.78 µM
KARPAS-422
  IC50: 168 µM
COLO-679; colo-679
  IC50: 2.66 µM
NCI-H2196
  IC50: 22.8 µM
RPMI-7951; rpmi-7951
  IC50: 1.24 µM
NCI-H1436
  IC50: 2770 µM
SW-620; sw-620
  IC50: 3.56 µM
SW837; sw837
  IC50: 1.61 µM
NCI-H810; nci-h810
  IC50: 55.1 µM
SW1573; sw1573
  IC50: 0.137 µM
NCI-H292; nci-h292
  IC50: 0.803 µM
CWR22R; cwr22r
  IC50: 7.33 µM
MDA-MB-134-VI
  IC50: 340 µM
COLO-678; colo-678
  IC50: 36.2 µM
K052
  IC50: 482 µM
KYSE-510; kyse-510
  IC50: 1.86 µM
HCC1954; hcc1954
  IC50: 84.2 µM
BXPC-3; bxpc-3
  IC50: 3.81 µM
HuP-T3; hup-t3
  IC50: 4.79 µM
LoVo; lovo
  IC50: 0.0712 µM
NCI-H1417
  IC50: 30.4 µM
COR-L279
  IC50: 25.4 µM
REH
  IC50: 0.0134 µM
